Reference: patent publication US8716315B2, “Analogs of thalidomide as potential angiogenesis inhibitors” (The United States of America as represented by the …, priority 2001, dated 2014)

Tests used:
HUVEC = HUVEC MTT assay; format: cell-based; conditions: for inhibition, growth curves treated vs control wells: at about 72 hours
Method: HUVEC MTT assays were performed for the selected thalidomide analogs of the present invention to determine a rough estimate of the efficacy of such compounds in the inhibition of angiogenesis. For the MTT assay, 1.0 to 2.5×10^3 cells per well were plated in 96-well plates in 0.1 ml medium, in triplicate. After 24 hours, the cells were exposed to treatment for 5 days. One plate was analyzed every 24 hours by the addition of 20 μL of 5 mg/ml MTT solution (available from Sigma of St. Louis, Mo.) in PBS, to each well for 4 hours. The MTT solution was aspirated and 170 μL DMSO was added to each well to dissolve the formazan crystals. The absorbance at 540 nm was measured using a Biokinetics plate reader (available from Bio-Tek Instruments of Winooski, Vt.). Triplicate wells were assayed for each condition. The assay protocol described herein stems from Kruger et al., a protein kinase C inhibitor, inhibits endothelial cell proliferation and angiogenic hypoxic response, Invasion and Metastasis, 18(4): 209-218 (incorporated herein by reference).
The following results for the selected compounds were determined measured utilizing growth curves comparing control wells to treated wells using the MTT assays.

rat aortic rings = experiment: Anti-angiogenic activity utilizing rat aortic rings; format: cell-based, rat (Sprague-Dawley); conditions: daily dosage of 100 μM, five-day treatment, image analysis vs DMSO control rings; for inhibition at 100 µM: Rattus norvegicus, 120 h, read-out: angiogenesis inhibition activity
Description: The efficacy of selected thalidomide analogs of the present invention was studied by five-day treatment of rat aortic rings (utilizing Sprague-Dawley rats available from Charles River Labs) with varied doses of the analogs. A DMSO control was utilized (FIG. 1). The results, determined using image analysis comparing control rings versus the treated rings (using NIM Image software), of the studies are as follows: […]

Toxicology screen = conditions: i.p., single dose
human saphenous veins = experiment: Anti-angiogenic activity utilizing human saphenous vein; format: cell-based; conditions: 336 h, daily dosages of 100 μM, 14 day treatment, image analysis, read-out: angiogenesis inhibition activity level
Method: The efficacy of 2-(1-hydroxymethyl-2,6-dioxo-piperidin-3-yl)-1,3-dihydro-2H-isoindole-1,3-dione (CPS11) was studied by 14 day treatment of human saphenous veins (obtained through an IRB-approved protocol, Surgery Brand NCI) with 100 μM doses of the analog. A CAI, carboxyamido-triazole, 12 μg/ml control was utilized.

SMILES: CCC1(N2C(=O)c3ccccc3C2=O)C(=O)NC(=O)N(C2CCCCC2)C1=O (centres unmarked) [CPS44, 1-cyclohexyl-5-ethyl-5-phthalimidobarbituric acid]
- inhibition (cytostatic activity), growth curves treated vs control wells (HUVEC; 10 μM): no such activity
- inhibition (cytostatic activity), growth curves treated vs control wells (HUVEC; 100 μM): about 50%
- angiogenesis inhibition activity (rat aortic rings): No inhibition of angiogenesis

SMILES: Cc1ccc(C)c2c1C(=O)N(c1ccc(F)cc1F)C2=O [CPS42, 2-(2,4-difluorophenyl)-4,7-dimethyl-1H-isoindole-1,3(2H)-dione]
- inhibition (cytostatic activity), growth curves treated vs control wells (HUVEC; 10 μM): no such activity
- inhibition (cytostatic activity), growth curves treated vs control wells (HUVEC; 100 μM): about 44%
- sedation noted (Toxicology screen; 200 mg/kg): Slight sedation
- time after injection at which sedation was noted (Toxicology screen; 200 mg/kg): ≤ 15 min
- toxicology screen outcome (Toxicology screen; 200 mg/kg): safe

SMILES: O=C1c2c(F)c(F)c(F)c(F)c2C(=O)N1c1c[nH]c(=O)[nH]c1=O [CPS48, 5-(tetrafluorophthalimido)pyrimidine-2,4(1H,3H)-dione]
- inhibition (cytostatic activity), growth curves treated vs control wells (HUVEC; 10 μM): about 85%
- inhibition (cytostatic activity), growth curves treated vs control wells (HUVEC; 100 μM): about 85%
- inhibition at 100 µM (rat aortic rings): 90%

SMILES: O=C1CCC(N2C(=O)c3ccccc3C2=O)C(=O)N1CO (centres unmarked) [CPS11, 2-(1-hydroxymethyl-2,6-dioxo-piperidin-3-yl)-1,3-dihydro-2H-isoindole-1,3-dione]
- inhibition, growth curves treated vs control wells (HUVEC; 10 μM): about 60%
- inhibition, growth curves treated vs control wells (HUVEC; 100 μM): > 90%
- inhibition at 100 µM (rat aortic rings): 90%
- inhibition at 100 µM (human saphenous veins): 90%
- toxicology screen outcome (Toxicology screen; 10 mg/kg): safe
- toxicology screen outcome (Toxicology screen; 100 mg/kg): safe
- sedation noted (Toxicology screen; 10 and 100 mg/kg): Some amount of sedation

SMILES: O=C1NC(=O)C(N2C(=O)c3ccccc3C2=O)CC1O (centres unmarked) [CPS3, 2-(5-hydroxy-2,6-dioxo-piperidin-3-yl)-1H-isoindole-1,3[2H]-dione]
- inhibition (cytostatic activity), growth curves treated vs control wells (HUVEC; 10 μM): No cytostatic activity
- inhibition (cytostatic activity), growth curves treated vs control wells (HUVEC; 100 μM): No cytostatic activity
- inhibition at 100 µM (rat aortic rings): ~50%
- melting point: 195 to 230 °C

SMILES: CCC1(N2C(=O)c3c(F)c(F)c(F)c(F)c3C2=O)C(=O)NC(=O)N(c2ccccc2)C1=O (centres unmarked) [CPS45, 5-ethyl-1-phenyl-5-(tetrafluorophthalimido)barbituric acid]
- inhibition (cytostatic activity), growth curves treated vs control wells (HUVEC; 10 μM): > 90%
- inhibition (cytostatic activity), growth curves treated vs control wells (HUVEC; 100 μM): > 90%
- inhibition at 100 µM (rat aortic rings): 90%
- time to death after treatment (Toxicology screen; 200 mg/kg): ≤ 2.5 h
- toxicology screen outcome (Toxicology screen; 200 mg/kg): lethal dose

SMILES: O=C1c2c(F)c(F)c(F)c(F)c2C(=O)N1c1ccc(F)cc1F [CPS49, 2-(2,4-difluoro-phenyl)-4,5,6,7-tetrafluoro-1H-isoindole-1,3(2H)-dione]
- inhibition (cytostatic activity), growth curves treated vs control wells (HUVEC; 10 μM): no such activity
- inhibition (cytostatic activity), growth curves treated vs control wells (HUVEC; 100 μM): about 90%
- angiogenesis inhibition activity (rat aortic rings): extensive angiogenesis inhibition activity
- time to death after treatment (Toxicology screen; 200 mg/kg): ≤ 18 h
- toxicology screen outcome (Toxicology screen; 200 mg/kg): lethal dose
